Measured values as given in patent publication US20110165198A1, “METHOD FOR REDUCING LIPID ABSORPTION BY AN ANIMAL” (priority 2008, published 2011).

Columns and labels:
C57bl6j mice [1] = assay: Intestinal lipid (fat) absorption in mice fed a high fat diet; format: in vivo
From the text: (§1) Adult male […] purchased at 8 week of age from Janvier Elevage (Le Genest-St-Isle, France) were individually housed and maintained ad libitum on high fat diet and water for 2 weeks. Seven mice were randomly allocated in 3 groups and fed with a high fat diet (lipids represented 50% of daily energy) during 2 weeks. For one kilogram, the composition of the high fat diet was: 235 g of casein, 201 g of saccharose, 3.5 g L-cystine, 85 g of starch, 116 g of maltodextrine, 60 g of cellulose, 12 g of vitamins mix, 51.5 g de mineral mix and 236 g of lard and 13 g of canola oil (UPAE, Jouy en Josas, France). Then, N-oleoyl-ethanolamide or (Z)-(R)-9-octadecenamide, N-(2-hydroxyethyl, 1-methyl) was added to the diet at the concentration of 100 mg/kg/bw. The mice are kept under treatment during 4 weeks. During the nutritional intervention, daily food intake has been monitored and the mice were weighted 3 times per week. During the last week of the experiment, the mice were kept during 5 days in metabolic cages to collect urine and feces. Lipids were extracted from feces after acidification using chloridric acid using chloroform/methanol (2:1 v/v) method. Total lipids were weighted, results were reported in mg of lipids per g of feces weight. Fat absorption was assessed using the following formula: Fat Absorption (% intake)=100*((Fat intake, g/d-fecal fat excretion, g/d)/fat intake). Example 1 was repeated except that N-oleoyl-ethanolamide as added to the diet at two different concentrations (0.1 or 1 g/kg/bw).

C57bl6j mice [2] = assay: Lipid excretion in feces of mice fed a high fat diet; format: in vivo
From the text: as §1

[3] = given orally in diet at 0.1 g/kg/bw (group C1 of Table 2), Example 2
[4] = given orally in diet at 100 mg/kg/bw, 4 weeks, Fat Absorption (% intake), Example 1
[5] = given orally in diet at 1 g/kg/bw (group C2 of Table 2), Example 2
[6] = given orally in diet at 100 mg/kg/bw, 4 weeks, feces collected over 5 days in last week, Example 1

Structure (SMILES) | Intestinal Lipid Absorption (%) MV (C57bl6j mice [1]; [3]) | Intestinal Lipid Absorption (%) MV (C57bl6j mice [1]; [4]) | Intestinal Lipid Absorption (%) MV (C57bl6j mice [1]; [5]) | Lipid Excretion (mg/g of Feces) MV (C57bl6j mice [2]; [3]) | Lipid Excretion (mg/g of Feces) MV (C57bl6j mice [2]; [6]) | Lipid Excretion (mg/g of Feces) MV (C57bl6j mice [2]; [5])
CCCCCCCC/C=C\CCCCCCCC(=O)NCCO [C1, N-oleoyl-ethanolamide] | 97.4% | 95.61% | 97.76% | 55.31 mg/g of Feces | 53.7 mg/g of Feces | 45.56 mg/g of Feces
CCCCCCCC/C=C\CCCCCCCC(=O)N[C@H](C)CO [C2, (Z)-(R)-9-octadecenamide, N-(2-hydroxyethyl,1-methyl)] |  | 95.05% |  |  | 65.6 mg/g of Feces | 
